Holding throughout (experiment): Western blotting in Caco-2 cells
Holding throughout (assay type): cell-based, human
Common to all, as to settings: Caco-2, IC50 dose, 24 h, normalized to β-actin
On the technique in general: Immunoblotting shows a protein as a band on a membrane.

In one test the test system is cleaved Cas-3. The procedure: (§1) The expression of Bax, Bcl-2, Cyt-C, cleaved cas-3 and p53 proteins in Caco-2 cells was determined using Western blot procedure according to the methods mentioned previously. […] Then, cells were lysed in 150 µL pre-cold lysis buffer [Tris-Base “10 mM”, NaCl “100 mM”, Ethylene glycol bis (2-aminoethyl) tetraacetic acid (EGTA) “20 mM”, ethylenediaminetetraacetic acid (EDTA) “25 mM”, 1% (v/v) NP-40, and 1% (v/v) Triton X-100; pH 7.4] immediately supplemented with 1:450 protease and phosphatase inhibitors cocktail (Sigma-Aldrich). Caco-2 cells were immediately collected by cell scraper, sonicated, and centrifuged at 12,000 rpm for 15 min. Total proteins in the produced supernatant were determined colorimetrically using the Pierce™ 660 nm Assay (Thermo Scientific, Rockford, IL, USA). Equal amounts (30 µg) of protein were mixed with sodium dodecyl sulfate (SDS)-loading buffer containing Tris-HCl, dithiothreitol (DTT), SDS, glycerol, and Bromophenol blue. The protein samples were then denatured by boiling for 5 min, allowed to cool on ice for 10 min and separated by SDS-polyacrylamide gel electrophoresis (Cleaver Scientific Ltd., Rugby, Warwickshire, UK), and transferred onto Polyvinylidene Difluoride (PVDF) membranes for 30 min using Trans-Blot® SD semi-dry transfer cell (Biorad). Membranes were then blocked with 5% (w/v) blotting-grade dry milk (Biorad) in Tris-buffered saline-Tween-20 (TBS-T), washed and incubated with antibodies against Bax, Bcl-2, cleaved caspase-3 (1:100–1:2000, Cell Signaling Technology), cytochrome c (1:500, Santa Cruz Biotechnology), p53 (1:1500, Abcam) and β-actin (1:2500, Sigma-Aldrich) for 16–17 h at 4 °C in a humidified chamber. The blots were washed, incubated at RT with matched horseradish peroxidase (HRP)-linked secondary antibodies (Dako, Denmark) for 1.5 h, and the bands were visualized with chemiluminescence Western Lightning ECL (Perkin Elmer, Waltham, MA) for 1 min in Chemi-Doc imager (Biorad, Hercules, CA, USA) and finally analyzed with Bio-Rad Image Lab software with normalization to β-actin.

Another test relates to p53. The protocol: as §1
The next test relates to Cyt-C. The protocol:
as §1

Turning to `CC1=C(/C=C/C(C)=C/C=C/C(C)=C/C(=O)O)C(C)(C)CCC1` [ATRA, All-trans retinoic acid, reference compound], the “activated (cleaved) Cas-3 protein level” value in the test with cleaved Cas-3 is “increment in the level of activated Cas-3”.

On to `CC1(C)CCC(C)(C)c2cc(C#Cc3cccc(C(=O)O)c3)ccc21` [EC19, 3-(5,5,8,8-tetramethyl-5,6,7,8-tetrahydronaphthalen-2-ylethynyl) benzoic acid], for which the “activated (cleaved) Cas-3 protein level” value in the test with cleaved Cas-3 was “increment in the level of activated Cas-3”. Also, the p53 protein level result in the test with p53 is given as “significantly increased”. The Cyt-C protein level result in the test on Cyt-C is listed as “significantly increased”.

These data come from article PMC7835894 (Molecules, 2021).
